target: T1, PDE4B (Homo sapiens, UniProt Q07343); experiment: PDE4B Scintillation Proximity (SPA) Assay; format: biochemical; settings: PDE4B active site fragment amino acids 152-484; [3H]cAMP; 30° C., one hour; read-out: Experimentally determined IC50-value for PDE4B inhibition
T1 construct: active site fragment comprising the amino acids 152-484
From the text: The IC50-values of the compounds of the invention (Examples 1.1 to 1.47) with respect to their PDE4B-inhibiting ability have been determined with a Scintillation Proximity (SPA) Assay (GE Healthcare, No. TRKQ7090). The Scintillation Proximity (SPA) Assay is based on the detection of the different affinities of the cyclic 3′-5′adenosine monophosphate (cAMP, low affinity) and the linear 5′-adenosine monophosphate (AMP, high affinity) to yttrium-silicate-scintillator beads. The cAMP-specific phosphodiesterase (PDE) PDE4B cleaves the 3′-phosphodiester bond of the tritium-labelled-[^3H]cAMP to the [^3H]5′-AMP. This [^3H]5′-AMP associates with the scintillator beads because of their higher affinity and causes scintillations (light flashes) which can be measured in a Wallac Microbeta Scintillation Counter.
10 μl of a [^3H]cAMP-solution (0.05 μCi in H2O, 10-30 Ci/mmol) are added to 89 μl of a PDE4B-enzyme-solution (active site fragment comprising the amino acids 152-484; 0.15-0.18 ng) in assay buffer (50 mM Tris HCl pH 7.5; 8.3 mM MgCl2; 1,7 mM ethylene glyclol tetraacetic acid (EGTA); 0.25 mg/ml bovine serum albumin (BSA)) and this mixture is incubated at 30° C. for one hour
a) without the compound to be tested (in the presence of 1 μl dimethylsulfoxide (DMSO), corresponding to 1% DMSO) and b) in the presence of the compound to be tested in a concentration of 125 μM, 25 μM, 5 μM, 1 μM, 200 nM, 40 nM, 8 nM, 1.6 nM, 0.32 nM, 0.064 nM, 0.0128 nM (dilution series in 5er-steps beginning from 125 μM until 0.0128 nM, in the presence of 1% DMSO).
After this incubation the reaction is stopped by the addition of 50 μl of bead-solution (500 mg beads/35 ml H2O, 18 mM zinc sulfate). In the following 45 minutes the beads have the opportunity to form a sediment. After that the scintillations are measured in the scintillation counter. If the tested compound is able to inhibit the enzymatic activity of the PDE4B-enzyme, less [^3H]AMP depending on the concentration of the tested compound is produced and less scintillations are measurable. […] The IC50-value stands for the compound concentration at which the PDE4B enzyme activity is inhibited to a half maximal value. Therefore the lower the IC50-value is the better is the PDE4B inhibition.

T1 sequence (Q07343 324-656): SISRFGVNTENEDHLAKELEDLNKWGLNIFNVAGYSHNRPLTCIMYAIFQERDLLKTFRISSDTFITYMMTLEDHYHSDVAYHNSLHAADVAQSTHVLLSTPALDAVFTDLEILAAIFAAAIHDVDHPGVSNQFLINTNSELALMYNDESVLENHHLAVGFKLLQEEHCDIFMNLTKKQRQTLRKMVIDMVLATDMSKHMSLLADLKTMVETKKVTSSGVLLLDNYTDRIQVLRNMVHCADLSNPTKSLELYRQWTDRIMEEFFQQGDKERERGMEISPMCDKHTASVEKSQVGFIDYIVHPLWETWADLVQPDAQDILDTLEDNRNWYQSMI

IC50 [nM] | SMILES
3.46 | [O-][S+]1CCc2nc(N3CCC(c4cc(-c5ccco5)n[nH]4)CC3)nc(NC3CCOCC3)c21 (stereo not shown) [Example 1.19, {2-[4-(5-furan-2-yl-2H-pyrazol-3-yl)-piperidin-1-yl]-5-oxo-6,7-dihydro-5H-5λ^4-thieno[3,2-d]pyrimidin-4-yl}-(tetrahydropyran-4-yl)-amine]
0.19 | CN1C[C@@H](Nc2nc(N3CCC(Oc4ccc(C5=NCCO5)cc4)CC3)nc3c2[S+]([O-])CC3)CCC1=O (stereo partly drawn) [Example 1.28, (S)-5-(2-{4-[4-(4,5-dihydrooxazol-2-yl)-phenoxy]-piperidin-1-yl}-5-oxo-6,7-dihydro-5H-5λ^4-thieno[3,2-d]pyrimidin-4-ylamino)-1-methylpiperidin-2-one]
1.7 | Cn1nc(-c2ccco2)cc1C1CCN(c2nc3c(c(NC4CCOCC4)n2)[S+]([O-])CC3)CC1 (stereo not shown) [Example 1.29, {2-[4-(5-furan-2-yl-2-methyl-2H-pyrazol-3-yl)-piperidin-1-yl]-5-oxo-6,7-dihydro-5H-5λ^4-thieno[3,2-d]pyrimidin-4-yl}-(tetrahydropyran-4-yl)-amine]
4.7 | [O-][S+]1CCc2nc(N3CCC(c4ccc(Cl)cc4)CC3)nc(NC3CCOCC3)c21 (stereo not shown) [Example 1.6, {2-[4-(4-chlorophenyl)-piperidin-1-yl]-5-oxo-6,7-dihydro-5H-5λ^4-thieno[3,2-d]pyrimidin-4-yl}-(tetrahydropyran-4-yl)-amine]
1.7 | [O-][S+]1CCc2nc(N3CCC(Oc4ccc(C5=NCCO5)cc4)CC3)nc(NC3CCOCC3)c21 (stereo not shown) [Example 1.23, (2-{4-[4-(4,5-dihydrooxazol-2-yl)-phenoxy]-piperidin-1-yl}-5-oxo-6,7-dihydro-5H-5λ^4-thieno[3,2-d]pyrimidin-4-yl)-(tetrahydropyran-4-yl)-amine]
8 | [O-][S+]1CCc2nc(N3CCC(Oc4ccncc4)CC3)nc(NC3CCOCC3)c21 (stereo not shown) [Example 1.34, {5-oxo-2-[4-(pyridin-4-yloxy)-piperidin-1-yl]-6,7-dihydro-5H-5λ^4-thieno[3,2-d]pyrimidin-4-yl}-(tetrahydropyran-4-yl)-amine]
2.3 | CN1C[C@@H](Nc2nc(N3CCC(Oc4ccc(F)cc4)CC3)nc3c2[S+]([O-])CC3)CCC1=O (stereo partly drawn) [Example 1.22, (S)-5-{2-[4-(4-fluorophenoxy)-piperidin-1-yl]-5-oxo-6,7-dihydro-5H-5λ4-thieno[3,2-d]pyrimidin-4-ylamino}-1-methylpiperidin-2-one]
15.4 | [O-][S+]1CCc2nc(N3CCC(c4ccc(F)cc4F)CC3)nc(NC3CCOCC3)c21 (stereo not shown) [Example 1.15, {2-[4-(2,4-difluorophenyl)-piperidin-1-yl]-5-oxo-6,7-dihydro-5H-5λ^4-thieno[3,2-d]pyrimidin-4-yl}-(tetrahydropyran-4-yl)-amine]

Continued, compound first:

SMILES | IC50 [nM]
CCc1[nH]c2ccc(F)cc2c1C1CCN(c2nc3c(c(Nc4cccc(F)c4)n2)[S+]([O-])CC3)CC1 (stereo not shown) [Example 1.13, {2-[4-(2-ethyl-5-fluoro-1H-indol-3-yl)-piperidin-1-yl]-5-oxo-6,7-dihydro-5H-5λ^4-thieno[3,2-d]pyrimidin-4-yl}-(3-fluorophenyl)-amine] | > 10000
CN1C[C@@H](Nc2nc(N3CCC(c4ccc(Cl)cc4)CC3)nc3c2[S+]([O-])CC3)CCC1=O (stereo partly drawn) [Example 1.5, (S)-5-{2-[4-(4-chlorophenyl)-piperidin-1-yl]-5-oxo-6,7-dihydro-5H-5λ^4-thieno[3,2-d]pyrimidin-4-ylamino}-1-methylpiperidin-2-one] | 0.6
Cc1oc(C2CCN(c3nc4c(c(NC5(CO)CC5)n3)[S+]([O-])CC4)CC2)nc1-c1ccccc1 (stereo not shown) [Example 1.37, (1-{2-[4-(5-methyl-4-phenyloxazol-2-yl)-piperidin-1-yl]-5-oxo-6,7-dihydro-5H-5λ^4-thieno[3,2-d]pyrimidin-4-ylamino}-cyclopropyl)-methanol] | 3.5
[O-][S+]1CCc2nc(N3CCC(c4ccc(Cl)cc4)CC3)nc(NC3(CO)CC3)c21 (stereo not shown) [Example 1.2, (1-{2-[4-(4-chlorophenyl)-piperidin-1-yl]-5-oxo-6,7-dihydro-5H-5λ^4-thieno[3,2-d]pyrimidin-4-ylamino}-cyclopropyl)-methanol] | 3.4
[O-][S+]1CCc2nc(N3CCC(c4ccc(F)cc4F)CC3)nc(NC3(CO)CC3)c21 (stereo not shown) [Example 1.14, (1-{2-[4-(2,4-difluorophenyl)-piperidin-1-yl]-5-oxo-6,7-dihydro-5H-5λ^4-thieno[3,2-d]pyrimidin-4-ylamino}-cyclopropyl)-methanol] | 16
CN1C[C@@H](Nc2nc(N3CCC(c4ccc(Cl)cc4)CC3)nc3c2S(=O)(=O)CC3)CCC1=O [Example 1.45, (S)-5-{2-[4-(4-chlorophenyl)-piperidin-1-yl]-5,5-dioxo-6,7-dihydro-5H-5λ^6-thieno[3,2-d]pyrimidin-4-ylamino}-1-methylpiperidin-2-one] | 54
CC(C)[C@H](CO)Nc1nc(N2CCC(c3nc(-c4ccncc4)no3)CC2)nc2c1[S+]([O-])CC2 (stereo partly drawn) [Example 1.21, (R)-3-methyl-2-{5-oxo-2-[4-(3-pyridin-4-yl-[1,2,4]oxadiazol-5-yl)-piperidin-1-yl]-6,7-dihydro-5H-5λ^4-thieno[3,2-d]pyrimidin-4-ylamino}-butan-1-ol] | > 10000
CN1C[C@@H](Nc2nc(N3CCC(C#N)(c4ccccc4)CC3)nc3c2[S+]([O-])CC3)CCC1=O (stereo partly drawn) [Example 1.10, 1-[4-((S)-1-methyl-6-oxopiperidin-3-ylamino)-5-oxo-6,7-dihydro-5H-5λ^4-thieno[3,2-d]pyrimidin-2-yl]-4-phenylpiperidin-4-carbonitrile] | 3.5
Cn1nc(C2CCN(c3nc4c(c(NC5CCOCC5)n3)[S+]([O-])CC4)CC2)cc1-c1ccco1 (stereo not shown) [Example 1.27] | 21
Cn1cc(C2CCN(c3nc4c(c(NC5CCOCC5)n3)[S+]([O-])CC4)CC2)c2cc(C(C)(C)C)ccc21 (stereo not shown) [Example 1.26, {2-[4-(5-tert-butyl-1-methyl-1H-indol-3-yl)-piperidin-1-yl]-5-oxo-6,7-dihydro-5H-5λ^4-thieno[3,2-d]pyrimidin-4-yl}-(tetrahydropyran-4-yl)-amine] | 38
[O-][S+]1CCc2nc(N3CCC(c4nc(-c5ccncc5)no4)CC3)nc(Nc3cccc(F)c3)c21 (stereo not shown) [Example 1.20, (3-fluorophenyl)-{5-oxo-2-[4-(3-pyridin-4-yl-[1,2,4]oxadiazol-5-yl)-piperidin-1-yl]-6,7-dihydro-5H-5λ^4-thieno[3,2-d]pyrimidin-4-yl}-amine] | 2.7
CN1C(=O)Nc2ccccc2C12CCN(c1nc3c(c(NC4CCOCC4)n1)[S+]([O-])CC3)CC2 (stereo not shown) [Example 1.11, 3′-methyl-1-(4-(tetrahydro-2H-pyran-4-ylamino)-5-oxo-6,7-dihydro-5H-5λ^4-thieno[3,2-d]pyrimidin-2-yl)-1′H-spiro[piperidin-4,4′-quinazolin]-2′(3′H)-one] | > 10000
[O-][S+]1CCc2nc(N3CCC(c4noc5ccccc45)CC3)nc(NC3(CO)CC3)c21 (stereo not shown) [Example 1.8, {1-[2-(4-benzo[d]isoxazol-3-yl-piperidin-1-yl)-5-oxo-6,7-dihydro-5H-5λ^4-thieno[3,2-d]pyrimidin-4-ylamino]-cyclopropyl}-methanol] | 1.9
CCc1[nH]c2ccc(F)cc2c1C1CCN(c2nc3c(c(NC4(CO)CC4)n2)[S+]([O-])CC3)CC1 (stereo not shown) [Example 1.9, (1-{2-[4-(2-ethyl-5-fluoro-1H-indol-3-yl)-piperidin-1-yl]-5-oxo-6,7-dihydro-5H-5λ^4-thieno[3,2-d]pyrimidin-4-ylamino}-cyclopropyl)-methanol] | 53.8
[O-][S+]1CCc2nc(N3CCC(c4noc5cc(F)ccc45)CC3)nc(NC3(CO)CC3)c21 (stereo not shown) [Example 1.17, (1-{2-[4-(6-fluorobenzo[d]isoxazol-3-yl)-piperidin-1-yl]-5-oxo-6,7-dihydro-5H-5λ^4-thieno[3,2-d]pyrimidin-4-ylamino}-cyclopropyl)-methanol] | 2.73
CN1C(=O)Nc2ccccc2C12CCN(c1nc3c(c(NC4(CO)CC4)n1)[S+]([O-])CC3)CC2 (stereo not shown) [Example 1.7, 1-(4-(1-hydroxymethylcyclopropylamino)-5-oxo-6,7-dihydro-5H-5λ^4-thieno[3,2-d]pyrimidin-2-yl)-3′-methyl-1′H-spiro[piperidin-4,4′-quinazolin]-2′(3′H)-one] | > 10000
N#Cc1ccc(OC2CCN(c3nc4c(c(NC5(CO)CC5)n3)[S+]([O-])CC4)CC2)cc1 (stereo not shown) [Example 1.43, 4-{1-[4-(1-hydroxymethylcyclopropylamino)-5-oxo-6,7-dihydro-5H-5λ^4-thieno[3,2-d]pyrimidin-2-yl]-piperidin-4-yloxy}-benzonitrile] | 3.5

Reference: patent publication US20140228286A1, “SPECIFIC PDE4B-INHIBITORS FOR THE TREATMENT OF DIABETES MELLITUS” (BOEHRINGER INGELHEIM INTERNATIONAL GMBH, priority 2013, published 2014)
